Assay results reported in patent US9744173B2, “2-amino 6-methyl-4,4a,5,6-tetrahydropyrano[3,4-d][1,3]thiazin-8a(8H)-yl-1,3-thiazol-4-yl amides” (Pfizer Inc., priority 2014, dated 2017).

How the values were obtained:
human BACE2 = human BACE2 (Homo sapiens (Human), UniProt Q9Y5Z0); test: BACE2 binding assay (SPA), BACE2/BACE1 Binding Ratio; settings: ratio of IC50 from respective binding assays, pH 6.0
Method: BACE2/BACE1 Binding Ratio: The BACE1 and BACE2 binding assays measured beta-site amyloid precursor protein-cleaving enzyme (BACE) binding as a decrease in the counts of radioligand bound in a scintillation proximity assay (SPA). […] Full length human BACE1 or BACE2 over-expressed in HEK cells was prepared by Pfizer scientists. Frozen stock cell paste was reacted in 50 mM sodium acetate buffer (pH=6.0) containing 3H-(4aR,6R,8aS)-8a-(2,4-difluorophenyl)-6-(1-methyl-1H-pyrazol-4-yl)-4,4a,5,6,8,8a-hexahydropyrano[3,4-d][1,3]thiazin-2-amine ligand, SPA bead and 60 μM to 600 pM of test compound in an assay volume of 27 uL. The compound plate also contained positive (BACE inhibitor) and negative (DMSO) control wells. The binding was carried out at room temperature for 30 minutes and then the plates were read on a TriLux Microbeta reader to determine the number of counts bound.

[1] = tested on: sAPPβ in H4 human neuroglioma cells over-expressing the wild-type human APP695; test: sAPPβ Whole-Cell Assay (WCA); assay type: cell-based; settings: 18 h
Method: sAPPβ Whole-Cell Assay (WCA): sAPPβ, the primary cleavage product of BACE1, was determined in H4 human neuroglioma cells over-expressing the wild-type human APP695. […] The colorimetric reaction was read by an EnVision (PerkinElmer) plate-reader.

GSH Incubation Assay = assay type: in vitro ADME; settings: following incubations with glutathione
Method: GSH Incubation Assay: The test compound (10 μM in DMSO) was incubated with L-glutathione (50 mM, prepared in 100 mM postassium phosphate buffer) at 37° C. for 4 hours and then analyzed by HPLC-UV/MS/MS without work-up. Thermo Accela HPLC and Velos Pro Orbitrap Elite (S/N: SN05189B) operating in positive mode with a source voltage of 3.5 kV with data dependant processing. […] Product assignments were based on high resolution mass spectrometer fragmentation.

Chain of human BACE2 (Q9Y5Z0 63-518): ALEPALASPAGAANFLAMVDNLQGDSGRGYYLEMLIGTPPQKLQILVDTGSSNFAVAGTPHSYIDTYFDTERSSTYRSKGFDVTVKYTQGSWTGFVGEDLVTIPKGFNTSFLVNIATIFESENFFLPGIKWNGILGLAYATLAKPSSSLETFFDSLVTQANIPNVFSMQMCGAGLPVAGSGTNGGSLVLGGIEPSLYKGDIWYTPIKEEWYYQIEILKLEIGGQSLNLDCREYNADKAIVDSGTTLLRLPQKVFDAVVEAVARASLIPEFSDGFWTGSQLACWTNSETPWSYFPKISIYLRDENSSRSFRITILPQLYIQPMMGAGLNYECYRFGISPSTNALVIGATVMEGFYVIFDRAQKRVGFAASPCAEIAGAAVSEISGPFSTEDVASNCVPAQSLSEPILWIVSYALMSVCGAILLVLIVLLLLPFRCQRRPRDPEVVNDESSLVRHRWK

| Structure (SMILES) | BACE2/BACE1 Binding Ratio (human BACE2) | IC50 [1] [nM] | formation of GSH adducts (GSH Incubation Assay) |
| --- | --- | --- | --- |
| NC1=N[C@@]2(c3cc(NC(=O)c4ccc(OC(F)F)cn4)ccc3F)CO[C@@H](C(F)(F)F)C[C@H]2CS1 [Comparator 6] | 1.0 | < 1 |  |
| C[C@H]1C[C@H]2CSC(N)=N[C@@]2(c2cc(NC(=O)c3ccc(Cl)cn3)ccc2F)CO1 [Comparator 7] | 1.0 | < 1 |  |
| C[C@H]1C[C@H]2CSC(N)=N[C@@]2(c2nc(NC(=O)c3ccc(OC(F)F)cn3)cs2)CO1 [Example 1, N-{2-[(4aR,6S,8aR)-2-amino-6-methyl-4,4a,5,6-tetrahydropyrano[3,4-d][1,3]thiazin-8a(8H)-yl]-1,3-thiazol-4-yl}-5-(difluoromethoxy)pyridine-2-carboxamide] |  |  | not detected |
| C[C@H]1C[C@H]2CSC(N)=N[C@@]2(c2nc(NC(=O)c3cnc(OC(F)F)cn3)cs2)CO1 [Example 2, N-{2-[(4aR,6S,8aR)-2-amino-6-methyl-4,4a,5,6-tetrahydropyrano[3,4-d][1,3]thiazin-8a(8H)-yl]-1,3-thiazol-4-yl}-5-(difluoromethoxy)pyrazine-2-carboxamide] |  |  | not detected |
| C[C@H]1C[C@H]2CSC(N)=N[C@@]2(c2nc(NC(=O)c3ccc(Cl)cn3)cs2)CO1 [Example 7, N-{2-[(4aR,6S,8aR)-2-amino-6-methyl-4,4a,5,6-tetrahydropyrano[3,4-d][1,3]thiazin-8a(8H)-yl]-1,3-thiazol-4-yl}-5-chloropyridine-2-carboxamide] |  |  | not detected |
| Cc1cc(OC(F)F)cnc1C(=O)Nc1csc([C@]23CO[C@@H](C)C[C@H]2CSC(N)=N3)n1 [Example 45, N-{2-[(4aR,6S,8aR)-2-amino-6-methyl-4,4a,5,6-tetrahydropyrano[3,4-d][1,3]thiazin-8a(8H)-yl]-1,3-thiazol-4-yl}-5-(difluoromethoxy)-3-methylpyridine-2-carboxamide] |  |  | not detected |
